Reference: patent US20070092577A1, “Dietary calcium for reducing the production of reactive oxygen species” (University of Tennessee Research Foundation, priority 2005, published 2007)

Legend:
adiponectin = assay: Adiponectin expression in differentiated 3T3-L1 adipocytes; type: cell-based, mouse; conditions: 100 nmol/L H2O2 or 1 μmol/L α±tocopherol, 48 h
Experimental: 3T3-L1 pre-adipocytes were incubated at a density of 8000 cells/cm^2 (10 cm^2 dish) and grown in Dulbecco's modified Eagle's medium (DMEM) containing 10% FBS and antibiotics (adipocyte medium) at 37° C. in 5% CO2 in air. Confluent pre-adipocytes were induced to differentiate with a standard differentiation medium consisting of DMEM-F10 (1:1, vol/vol) medium supplemented with 1% fetal bovine serum (FBS), 1 μM dexamethasone, isobutylmethylxanthine (IBMX) (0.5 mM) and antibiotics (1% Penicillin-Streptomycin). Pre-adipocytes were maintained in this differentiation medium for 3 days and subsequently cultured in adipocyte medium. Cultures were re-fed every 2-3 days to allow 90% cells to reach fully differentiation before conducting chemical treatment. […] Cell viability was measured via trypan blue exclusion. Adipocyte and muscle 18s, TNFα, IL-6, IL-8, IL-15 and adiponectin were quantitatively measured using a smart cycler real-time PCR system (Cepheid, Sunnyvale, Calif.) with a TaqMan 1000 Core Reagent Kit (Applied Biosystems, Branchburg, N.J.). […] Reactions of quantitative RT-PCR for standards and unknown samples were also performed according to the instructions of Smart Cycler System (Cepheid, Sunnyvale, Calif.) and TaqMan Real Time PCR Core Kit (Applied Biosystems, Branchburg, N.J.). The mRNA quantitation for each sample was further normalized using the corresponding 18s quantitation.

[1] = test system: [Ca^2+]i in cultured 3T3-L1 adipocytes; assay: Intracellular calcium in cultured adipocytes (fura-2); type: cell-based, murine; conditions: 4 hours
Experimental: 3T3-L1 preadipocytes were incubated at a density of 8000 cells/cm^2 (10 cm^2 dish) and grown in Dulbecco's modified Eagle's medium (DMEM) containing 10% FBS and antibiotics (adipocyte medium) at 37° C. in 5% CO2 in air. Confluent preadipocytes were induced to differentiate with a standard differentiation medium consisting of DMEM-F 10 (1:1, vol/vol) medium supplemented with 1% FBS, 1 μM dexamethasone, IBMX (0.5 mM) and antibiotics (1% Penicillin-Streptomycin). Preadipocytes were maintained in this differentiation medium for 3 days and subsequently cultured in adipocyte medium. Cultures were re-fed every 2-3 days to allow 90% of cells to reach full differentiation before conducting chemical treatment. Chemicals were freshly diluted in adipocyte medium before treatment. Cells were washed with fresh adipocyte medium, re-fed with medium containing the different treatments, and incubated at 37° C. in 5% CO2 in air before analysis. Cell viability was measured via trypan blue exclusion. [Ca^2+]i in adipocytes was measured using a fura-2 dual-wavelength fluorescence imaging system. Cells were plated in 35-mm dishes […]). […] Cells were loaded with fura-2 acetoxymethyl ester (fura-2 AM) (10 μmol/L) in the same buffer for 2 h at 37° C. in a dark incubator with 5% CO2. To remove extracellular dye, cells were rinsed with HBSS three times and then post-incubated at room temperature for an additional 1 h for complete hydrolysis of cytoplasmic fura-2 AM. The dishes with dye-loaded cells were mounted on the stage of Nikon TMS-F fluorescence inverted microscope with a Cohu model 4915 charge-coupled device (CCD) camera. Fluorescent images were captured alternatively at excitation wavelengths of 340 and 380 nm with an emission wavelength of 520 nm. After establishment of a stable baseline, the responses to 1α, 25-(OH)2-D3 was determined. [Ca^2+]i was calculated using a ratio equation as described previously. Each analysis evaluated responses of 5 representative whole cells. Images were analyzed with […]2 version 4.62 imaging software (Intracellular Imaging, Cincinnati, Ohio). […]

[2] = test system: ROS production in cultured 3T3-L1 adipocytes; assay: ROS production in cultured adipocytes (H2-DCFDA); type: cell-based, murine; conditions: 48 hours
Experimental: 3T3-L1 preadipocytes were incubated at a density of 8000 cells/cm^2 (10 cm^2 dish) and grown in Dulbecco's modified Eagle's medium (DMEM) containing 10% FBS and antibiotics (adipocyte medium) at 37° C. in 5% CO2 in air. Confluent preadipocytes were induced to differentiate with a standard differentiation medium consisting of DMEM-F 10 (1:1, vol/vol) medium supplemented with 1% FBS, 1 μM dexamethasone, IBMX (0.5 mM) and antibiotics (1% Penicillin-Streptomycin). Preadipocytes were maintained in this differentiation medium for 3 days and subsequently cultured in adipocyte medium. Cultures were re-fed every 2-3 days to allow 90% of cells to reach full differentiation before conducting chemical treatment. Chemicals were freshly diluted in adipocyte medium before treatment. Cells were washed with fresh adipocyte medium, re-fed with medium containing the different treatments, and incubated at 37° C. in 5% CO2 in air before analysis. Cell viability was measured via trypan blue exclusion. […] Cells were loaded with H2-DCFDA (2 μmol/L) 30 minute before the end of the incubation period (48 h). After washing twice with PBS, cells were scraped and disrupted by sonication on ice (20s). Fluorescence (emission 543 nm or 527 nm) and DNA content were then measured as described previously. The intensity of fluorescence was expressed as arbitary units per ng DNA.

Row | Structure (SMILES) | effect on adiponectin production (adiponectin) | increase in [Ca^2+]i ([1]; H2O2 100 nmol/L or glucose 30 mmol/L, p<0.001) [fold] | effect on high glucose induced ROS production ([2]; added to glucose 30 mmol/L, nifedipine 10 μmol/L) | effect on ROS production in all groups ([2]; α-tocopherol 1 μmol/L) | effect on H2O2 induced increase in [Ca^2+]i ([1]; α-tocopherol 1 μmol/L with H2O2 100 nmol/L) | effect on glucose induced increase in [Ca^2+]i ([1]; α-tocopherol 1 μmol/L with glucose 30 mmol/L)
1 | OO [H2O2, hydrogen peroxide] | without significant effect | 5 | – | – | – | –
2 | C=C1/C(=C\C=C2/CCC[C@]3(C)[C@@H]([C@H](C)CCCC(C)(C)O)CC[C@@H]23)C[C@@H](O)C[C@@H]1O [calcitriol, 1, 25-Dihydroxyvitamin D] | – | – | greater stimulation of ROS production than either glucose alone or glucose plus GDP | – | – | –
3 | Cc1c(C)c2c(c(C)c1O)CC[C@@](C)(CCC[C@H](C)CCC[C@H](C)CCCC(C)C)O2 [α-tocopherol] | increased | – | – | inhibited | reversed | partially blocked
